Source text: In one or more embodiments, the foamable composition includes a potent solvent, in addition to or in place of one of the hydrophobic solvents, polar solvents or emollients of the composition. A potent solvent is a solvent other than mineral oil that solubilizes a specific active agent substantially better than a hydrocarbon solvent such as mineral oil or petrolatum.

SMILES | solubility in glycofurol | solubility in mineral oil | solubility in dimethyl isosorbide | solubility in propylene glycol | solubility in polyethylene glycol 400 (PEG 400)
CCCCC(=O)O[C@]1(C(=O)CO)[C@@H](C)C[C@H]2[C@@H]3CCC4=CC(=O)C=C[C@]4(C)[C@@]3(F)[C@@H](O)C[C@@]21C [Betamethasone valerate] | more than 1% | < 0.01% | – | – | –
CCCC(=O)O[C@]1(C(=O)CO)CC[C@H]2[C@@H]3CCC4=CC(=O)CC[C@]4(C)[C@H]3[C@@H](O)C[C@@]21C [Hydrocortisone butyrate] | more than 1% | < 0.01% | – | – | –
CC(=O)N1CCN(c2ccc(OCC3COC(Cn4ccnc4)(c4ccc(Cl)cc4Cl)O3)cc2)CC1 (centres unmarked) [Ketoconazole] | more than 1% | < 0.01% | more than 1% | more than 1% | –
Cc1cnc(NC(=O)C2=C(O)c3ccccc3S(=O)(=O)N2C)s1 [Meloxicam] | – | < 0.001% | – | – | –
Cc1ncc([N+](=O)[O-])n1CCO [Metronidazole] | – | < 0.01% | more than 1% | – | –
C/C(=C\C(=O)OCCCCCCCCC(=O)O)C[C@@H]1OC[C@H](C[C@@H]2O[C@H]2[C@@H](C)[C@H](C)O)[C@@H](O)[C@H]1O [Mupirocin] | more than 1% | < 0.01% | more than 1% | more than 1% | more than 1%
CC(=O)[C@H]1CC[C@H]2[C@@H]3CCC4=CC(=O)CC[C@]4(C)[C@H]3CC[C@]12C [Progesterone] | – | < 0.001% | – | – | –

From patent US20090175799A1, “COLORED OR COLORABLE TOPICAL COMPOSITION FOAM” (priority 2006, published 2009)
